# Test results published in ChEMBL document CHEMBL2169819, “Synthesis and biological evaluation of 2-amino-3-(4-chlorobenzoyl)-4-[(4-arylpiperazin-1-yl)methyl]-5-substituted-thiophenes. effect of the 5-modification on allosteric enhancer activity at the A1 adenosine receptor” (J Med Chem, 2012).
# Target: T1, Adenosine receptor A1 (Homo sapiens) (UniProt P30542)
# T1 sequence (whole entry): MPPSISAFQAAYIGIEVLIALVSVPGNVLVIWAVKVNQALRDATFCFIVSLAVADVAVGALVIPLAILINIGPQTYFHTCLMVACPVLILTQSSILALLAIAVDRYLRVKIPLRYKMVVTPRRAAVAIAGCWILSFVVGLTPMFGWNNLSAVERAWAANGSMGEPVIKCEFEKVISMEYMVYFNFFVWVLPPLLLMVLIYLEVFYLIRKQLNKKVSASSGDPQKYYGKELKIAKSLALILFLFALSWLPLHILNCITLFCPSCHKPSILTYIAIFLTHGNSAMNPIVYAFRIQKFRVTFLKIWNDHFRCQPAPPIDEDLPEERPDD
# Test: Allosteric enhancing activity at human adenosine A1 receptor expressed in CHO cells assessed as inhibition of forskolin-stimulated cAMP accumulation at 100 nM incubated for 10 mins prior to forskolin-stimulation measured after 5 mins by competition protein binding assay in presence of 2-chloro-N6-cyclopentyladenosine
# Type: functional, cell-based
row,inhibition [%],Structure (SMILES)
1,60,Nc1sc(-c2ccccc2)c(CN2CCN(c3cccc(C(F)(F)F)c3)CC2)c1C(=O)c1ccc(Cl)cc1
2,53,CCc1sc(N)c(C(=O)c2ccc(Cl)cc2)c1CN1CCN(c2ccc(Cl)cc2)CC1

# The remaining lines, values behind:
row,Structure (SMILES),inhibition [%]
1,Cc1sc(N)c(C(=O)c2ccc(Cl)cc2)c1CN1CCN(c2ccc(Br)cc2)CC1,46
2,Cc1sc(N)c(C(=O)c2ccc(Cl)cc2)c1CN1CCN(c2ccc(F)cc2)CC1,53
3,Nc1sc(Br)c(CN2CCN(c3ccccc3)CC2)c1C(=O)c1ccc(Cl)cc1,43
4,COc1ccc(N2CCN(Cc3c(C)sc(N)c3C(=O)c3ccc(Cl)cc3)CC2)cc1,30
5,Nc1sc(-c2ccc(Cl)cc2)c(CN2CCN(c3ccc(Cl)cc3)CC2)c1C(=O)c1ccc(Cl)cc1,71

# Target: T1, Adenosine receptor A1 (Homo sapiens)
# Test: Displacement of [3H]DPCPX from human adenosine A1 receptor expressed in CHO cells at 10 uM after 120 mins by scintillation counting
# Type: cell-based
row,inhibition [%],Structure (SMILES)
1,< 12,Nc1sc(-c2ccccc2)c(CN2CCN(c3cccc(C(F)(F)F)c3)CC2)c1C(=O)c1ccc(Cl)cc1
2,< 12,CCc1sc(N)c(C(=O)c2ccc(Cl)cc2)c1CN1CCN(c2ccc(Cl)cc2)CC1

# The next lines start with the compound.
row,Structure (SMILES),inhibition [%]
1,Cc1sc(N)c(C(=O)c2ccc(Cl)cc2)c1CN1CCN(c2ccc(Br)cc2)CC1,< 12
2,Cc1sc(N)c(C(=O)c2ccc(Cl)cc2)c1CN1CCN(c2ccc(F)cc2)CC1,< 12
3,Nc1sc(Br)c(CN2CCN(c3ccccc3)CC2)c1C(=O)c1ccc(Cl)cc1,< 12
4,COc1ccc(N2CCN(Cc3c(C)sc(N)c3C(=O)c3ccc(Cl)cc3)CC2)cc1,< 12
5,Nc1sc(-c2ccc(Cl)cc2)c(CN2CCN(c3ccc(Cl)cc3)CC2)c1C(=O)c1ccc(Cl)cc1,< 12

# Target: T2, Adenosine receptor A3 (Homo sapiens) (UniProt P0DMS8)
# T2 sequence (whole entry): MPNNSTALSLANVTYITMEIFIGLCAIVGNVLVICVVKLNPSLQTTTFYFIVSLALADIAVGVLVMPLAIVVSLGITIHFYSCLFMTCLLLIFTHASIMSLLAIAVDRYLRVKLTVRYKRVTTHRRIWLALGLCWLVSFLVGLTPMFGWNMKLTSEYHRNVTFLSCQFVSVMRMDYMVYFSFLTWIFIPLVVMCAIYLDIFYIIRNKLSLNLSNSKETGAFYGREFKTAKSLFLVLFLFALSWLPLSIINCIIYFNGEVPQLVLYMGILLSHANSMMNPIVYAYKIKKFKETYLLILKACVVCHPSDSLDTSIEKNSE
# Test: Displacement of [3H]MRE-3008-F20 from human adenosine A3 receptor expressed in CHO cells at 10 uM after 120 mins by scintillation counting
# Type: cell-based
row,inhibition [%],Structure (SMILES)
1,< 12,Nc1sc(-c2ccccc2)c(CN2CCN(c3cccc(C(F)(F)F)c3)CC2)c1C(=O)c1ccc(Cl)cc1
2,< 12,CCc1sc(N)c(C(=O)c2ccc(Cl)cc2)c1CN1CCN(c2ccc(Cl)cc2)CC1

# Second part, the compound before the results:
row,Structure (SMILES),inhibition [%]
1,Cc1sc(N)c(C(=O)c2ccc(Cl)cc2)c1CN1CCN(c2ccc(Br)cc2)CC1,< 12
2,Cc1sc(N)c(C(=O)c2ccc(Cl)cc2)c1CN1CCN(c2ccc(F)cc2)CC1,< 12
3,Nc1sc(Br)c(CN2CCN(c3ccccc3)CC2)c1C(=O)c1ccc(Cl)cc1,< 12
4,COc1ccc(N2CCN(Cc3c(C)sc(N)c3C(=O)c3ccc(Cl)cc3)CC2)cc1,< 12
5,Nc1sc(-c2ccc(Cl)cc2)c(CN2CCN(c3ccc(Cl)cc3)CC2)c1C(=O)c1ccc(Cl)cc1,< 12

# Target: T1, Adenosine receptor A1 (Homo sapiens)
# Test: Allosteric enhancing activity at human adenosine A1 receptor expressed in CHO cells assessed as increase in [3H]-2-chloro-N6-cyclopentyladenosine Bmax at 10 uM after 90 mins relative to control
# Type: cell-based
row,fold change (FC),Structure (SMILES)
1,7.5,Nc1sc(-c2ccccc2)c(CN2CCN(c3cccc(C(F)(F)F)c3)CC2)c1C(=O)c1ccc(Cl)cc1
2,6.5,CCc1sc(N)c(C(=O)c2ccc(Cl)cc2)c1CN1CCN(c2ccc(Cl)cc2)CC1

# More lines, now with the values behind:
row,Structure (SMILES),fold change (FC)
1,Cc1sc(N)c(C(=O)c2ccc(Cl)cc2)c1CN1CCN(c2ccc(Br)cc2)CC1,4.9
2,Cc1sc(N)c(C(=O)c2ccc(Cl)cc2)c1CN1CCN(c2ccc(F)cc2)CC1,5.9
3,Nc1sc(Br)c(CN2CCN(c3ccccc3)CC2)c1C(=O)c1ccc(Cl)cc1,4.7
4,COc1ccc(N2CCN(Cc3c(C)sc(N)c3C(=O)c3ccc(Cl)cc3)CC2)cc1,3.2
5,Nc1sc(-c2ccc(Cl)cc2)c(CN2CCN(c3ccc(Cl)cc3)CC2)c1C(=O)c1ccc(Cl)cc1,11.4

# Target: Adenosine receptor A2a (Homo sapiens) (UniProt P29274)
# Test: Displacement of [3H]ZM241385 from human adenosine A2A receptor expressed in CHO cells at 10 uM after 120 mins by scintillation counting
# Type: cell-based
# Sequence of Adenosine receptor A2a (Homo sapiens) (P29274 whole entry): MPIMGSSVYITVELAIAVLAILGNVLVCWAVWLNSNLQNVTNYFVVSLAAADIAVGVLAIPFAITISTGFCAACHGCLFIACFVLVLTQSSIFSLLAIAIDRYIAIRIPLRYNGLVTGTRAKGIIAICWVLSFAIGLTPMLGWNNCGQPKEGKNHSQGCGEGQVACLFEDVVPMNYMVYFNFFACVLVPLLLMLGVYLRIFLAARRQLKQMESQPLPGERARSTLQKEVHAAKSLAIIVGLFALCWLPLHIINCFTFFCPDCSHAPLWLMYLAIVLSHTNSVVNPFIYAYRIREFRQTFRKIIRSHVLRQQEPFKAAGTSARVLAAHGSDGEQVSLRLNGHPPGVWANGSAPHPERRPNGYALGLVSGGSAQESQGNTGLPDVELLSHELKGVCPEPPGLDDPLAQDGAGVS
row,inhibition [%],Structure (SMILES)
1,< 12,Nc1sc(-c2ccccc2)c(CN2CCN(c3cccc(C(F)(F)F)c3)CC2)c1C(=O)c1ccc(Cl)cc1
2,< 12,CCc1sc(N)c(C(=O)c2ccc(Cl)cc2)c1CN1CCN(c2ccc(Cl)cc2)CC1

# Further lines, the compound ahead of its results:
row,Structure (SMILES),inhibition [%]
1,Cc1sc(N)c(C(=O)c2ccc(Cl)cc2)c1CN1CCN(c2ccc(Br)cc2)CC1,< 12
2,Cc1sc(N)c(C(=O)c2ccc(Cl)cc2)c1CN1CCN(c2ccc(F)cc2)CC1,< 12
3,Nc1sc(Br)c(CN2CCN(c3ccccc3)CC2)c1C(=O)c1ccc(Cl)cc1,< 12
4,COc1ccc(N2CCN(Cc3c(C)sc(N)c3C(=O)c3ccc(Cl)cc3)CC2)cc1,< 12
5,Nc1sc(-c2ccc(Cl)cc2)c(CN2CCN(c3ccc(Cl)cc3)CC2)c1C(=O)c1ccc(Cl)cc1,< 12

# Target: T1, Adenosine receptor A1 (Homo sapiens)
# Test: Allosteric enhancing activity at human adenosine A1 receptor expressed in CHO cells assessed as inhibition of forskolin-stimulated cAMP accumulation at 10 uM incubated for 10 mins prior to forskolin-stimulation measured after 5 mins by competition protein binding assay
# Type: functional, cell-based
row,inhibition [%],Structure (SMILES)
1,63,Nc1sc(-c2ccccc2)c(CN2CCN(c3cccc(C(F)(F)F)c3)CC2)c1C(=O)c1ccc(Cl)cc1
2,60,CCc1sc(N)c(C(=O)c2ccc(Cl)cc2)c1CN1CCN(c2ccc(Cl)cc2)CC1

# Further lines, the compound ahead of its results:
row,Structure (SMILES),inhibition [%]
1,Cc1sc(N)c(C(=O)c2ccc(Cl)cc2)c1CN1CCN(c2ccc(Br)cc2)CC1,49
2,Cc1sc(N)c(C(=O)c2ccc(Cl)cc2)c1CN1CCN(c2ccc(F)cc2)CC1,50
3,Nc1sc(Br)c(CN2CCN(c3ccccc3)CC2)c1C(=O)c1ccc(Cl)cc1,48
4,COc1ccc(N2CCN(Cc3c(C)sc(N)c3C(=O)c3ccc(Cl)cc3)CC2)cc1,31
5,Nc1sc(-c2ccc(Cl)cc2)c(CN2CCN(c3ccc(Cl)cc3)CC2)c1C(=O)c1ccc(Cl)cc1,85

# Target: T1, Adenosine receptor A1 (Homo sapiens)
# Test: Allosteric enhancing activity at human adenosine A1 receptor expressed in CHO cells assessed as increase in CCPA-induced [3H]DPCPX displacement at 10 uM after 90 mins relative to control
# Type: cell-based
row,Ratio Ki,Structure (SMILES)
1,7.1,Nc1sc(-c2ccccc2)c(CN2CCN(c3cccc(C(F)(F)F)c3)CC2)c1C(=O)c1ccc(Cl)cc1
2,6,CCc1sc(N)c(C(=O)c2ccc(Cl)cc2)c1CN1CCN(c2ccc(Cl)cc2)CC1

# Continued, compound first:
row,Structure (SMILES),Ratio Ki
1,Cc1sc(N)c(C(=O)c2ccc(Cl)cc2)c1CN1CCN(c2ccc(Br)cc2)CC1,4.5
2,Cc1sc(N)c(C(=O)c2ccc(Cl)cc2)c1CN1CCN(c2ccc(F)cc2)CC1,5.2
3,Nc1sc(Br)c(CN2CCN(c3ccccc3)CC2)c1C(=O)c1ccc(Cl)cc1,4.5
4,COc1ccc(N2CCN(Cc3c(C)sc(N)c3C(=O)c3ccc(Cl)cc3)CC2)cc1,2.6
5,Nc1sc(-c2ccc(Cl)cc2)c(CN2CCN(c3ccc(Cl)cc3)CC2)c1C(=O)c1ccc(Cl)cc1,8.7
